Experimental data taken from patent US20210261621A1, “Preparation of Dilipid Polymixins and Use Thereof as Antimicrobial Adjuvants” (priority 2018, published 2021).
In brackets after ≈: the same amount, converted by molar mass. Like-named read-outs stand apart in the source and are kept apart here. Positions of bridges follow the written chain, without caps; N, C: chain ends. Non-standard residues stand in square brackets, D forms with d. Residues, ends and D or L forms follow the SMILES beside them. *: point of attachment. Acetyl(1-adamantyl) = O=C(CC12CC3CC(CC(C3)C1)C2)*; Dab = NCC[C@H](N)C(=O)O

What was measured:
P. aeruginosa PAO200 = conditions: for MIC: P. aeruginosa PAO200, efflux-deficient strain that lacks the MexAB-OprM pump
Text: (§1) To our curiosity, we explored whether efflux can affect the activity of polymyxins. It is widely accepted that polymyxins disrupt Gram-negative bacterial membranes that result to intracellular component leakage and bacterial cell death. However, for this to occur requires the agent to reach the periplasmic space to interact and disrupt the inner membrane. Active efflux may potentially expel polymyxins out of the periplasm, effectively reducing its periplasmic and intracellular concentrations. To study the effect of efflux on polymyxins in Gram-negative pathogens, we used P. aeruginosa as they inherently overexpress efflux systems such as MexAB-OprM, MexCD-OprJ and MexXY-OprM. Moreover, antibiotic substrates for these efflux systems are mostly characterized. We evaluated and compared the activity of the dilipid polymyxins, colistin and PMBN against wild-type PAO1 and two efflux-deficient P. aeruginosa isogenic mutants (Table 5). The strain PAO200 lacks the MexAB-OprM efflux system while strain PAO750 lacks five clinically-relevant pumps (MexAB-OprM, MexCD-OprJ, MexEF-OprN, MexJK and MexXY) and outer membrane protein OpmH.
(§2) Bacterial strains were either obtained from the American Type Culture Collection (ATCC), Canadian National Intensive Care Unit (CAN-ICU) surveillance study or the Canadian Ward Surveillance (CANWARD) study. Strains from both CAN-ICU and CANWARD are isolates recovered from patients diagnosed with a presumed infectious disease that were admitted in a participating medical center across Canada. Efflux-deficient strain PAO200 (lacking MexAB-OprM efflux system) and PA0750 (lacking MexAB-OprM, MexCD-OprJ, MexEF-OprN, MexJK and MexXY efflux systems, and the outer membrane protein OpmH) were kindly gifted by Dr. Ayush Kumar (University of Manitoba).
(§3) The in vitro antibacterial activity of the compounds studied were assessed by broth microdilution susceptibility testing following CLSI guidelines. Bacterial cultures were grown overnight prior to the assay. The overnight grown cultures were diluted in saline to 0.5 McFarland turbidity, followed by 1:50 dilution in Mueller-Hinton broth (MHB) for inoculation to a final concentration of approximately 5×10^5 colony forming units/mL. Testing was performed on 96-well plates where the tested compounds were 2-fold serially diluted in MHB and incubated with equal volumes of bacterial inoculum at 37° C. for 18 h. […] Wells containing MHB with or without bacterial cells were used as positive or negative control, respectively.

P. aeruginosa PAO750 = conditions: P. aeruginosa PAO750, efflux-deficient strain that lacks five pumps and OpmH
Text: as §1, §2, §3

E. coli 94474 = format: cell-based, Escherichia coli
Protocol: (§4) We then addressed the possibility for the dilipid polymyxins to display enhanced antibacterial activity against colistin-resistant Gram-negative pathogens. […] The extended hydrophobic region of the dilipid polymyxin may provide additional hydrophobic interactions to the outer membrane of colistin-resistant organisms. Eight MDR colistin-resistant Gram-negative bacterial isolates were tested, including two E. coli isolates harboring the mcr-1 plasmid-encoded polymyxin resistance gene. We found no difference between the antibacterial activity of dilipid polymyxins and colistin against colistin-resistant Gram-negative bacteria (Table 3).
as §2, §3

E. coli 94393 = format: cell-based, Escherichia coli
Protocol: as §4, §2, §3

K. pneumoniae 113250 = format: cell-based, Klebsiella pneumoniae
Protocol: as §4, §2, §3

K. pneumoniae 113254 = format: cell-based, Klebsiella pneumoniae
Protocol: as §4, §2, §3

P. aeruginosa 114228 = format: cell-based, Pseudomonas aeruginosa
Protocol: as §4, §2, §3

P. aeruginosa 101243 = format: cell-based, Pseudomonas aeruginosa
Protocol: as §4, §2, §3

P. aeruginosa 91433 = format: cell-based, Pseudomonas aeruginosa
Protocol: as §4, §2, §3

A. baumannii AB031 = format: cell-based, Acinetobacter baumannii; conditions: A. baumannii AB031
Text: as §2, §3

[1] = system: A. baumannii CAN-ICU 63169; format: cell-based, Acinetobacter baumannii; conditions: A. baumannii CAN-ICU 63169
Text: as §2, §3

A. baumannii AB027 = format: cell-based, Acinetobacter baumannii; conditions: A. baumannii AB027
Text: as §2, §3

A. baumannii LAC-4 = format: cell-based, Acinetobacter baumannii; conditions: A. baumannii LAC-4
Text: as §2, §3

A. baumannii ATCC 17978 = format: cell-based, Acinetobacter baumannii; conditions: A. baumannii ATCC 17978
Text: as §2, §3

A. baumannii 110193 = format: cell-based, Acinetobacter baumannii; conditions: A. baumannii 110193
Text: as §2, §3

MSSE CANWARD-2008 81388 = format: cell-based, Staphylococcus epidermidis; conditions: MSSE CANWARD-2008 81388 (methicillin-susceptible Staphylococcus epidermidis)
Text: as §2, §3

E. cloacae 117029 = format: cell-based, Enterobacter cloacae; conditions: E. cloacae 117029
Text: as §2, §3

E. coli ATCC 25922 = format: cell-based, Escherichia coli; conditions: E. coli ATCC 25922
Text: as §2, §3

E. coli 107115 = format: cell-based, Escherichia coli; conditions: E. coli 107115
Text: as §2, §3

E. coli CAN-ICU 63074 = format: cell-based, Escherichia coli; conditions: E. coli CAN-ICU 63074
Text: as §2, §3

E. coli CAN-ICU 61714 = format: cell-based, Escherichia coli; conditions: E. coli CAN-ICU 61714
Text: as §2, §3

A. baumannii 92247 = format: cell-based, Acinetobacter baumannii
Protocol: as §4, §2, §3

MRSE CAN-ICU 61589 = format: cell-based, S. epidermidis; conditions: MRSE CAN-ICU 61589 (methicillin-resistant S. epidermidis)
Text: as §2, §3

[2] = system: S. maltophilia CAN-ICU 62584; format: cell-based, Stenotrophomonas maltophilia; conditions: S. maltophilia CAN-ICU 62584
Text: as §2, §3

Molecule	MIC (P. aeruginosa PAO200)	MIC (P. aeruginosa PAO750)	MIC (A. baumannii AB031)	MIC [1]	MIC (A. baumannii AB027)	MIC (A. baumannii LAC-4)	MIC (A. baumannii ATCC 17978)	MIC (A. baumannii 110193)	MIC (MSSE CANWARD-2008 81388)	MIC (E. cloacae 117029)	MIC (E. coli ATCC 25922)	MIC (E. coli 107115)	MIC (E. coli CAN-ICU 63074)	MIC (E. coli CAN-ICU 61714)	MIC (MRSE CAN-ICU 61589)	MIC [2]	also measured
colistin [reference compound]	0.5 µg/mL	0.5 µg/mL	0.25 µg/mL	32 µg/mL	0.25 µg/mL	0.125 µg/mL	0.25 µg/mL	0.25 µg/mL	256 µg/mL	0.125 µg/mL	0.5 µg/mL	0.5 µg/mL	≤0.5 µg/mL	0.5 µg/mL	128 µg/mL	64 µg/mL	difference in MIC among the three P. aeruginosa strains tested (P. aeruginosa PAO200; PAO1, PAO200, PAO750): no difference; MIC (E. coli 94474; E. coli 94474, colistin-resistant multidrug-resistant isolate): 16 µg/mL; MIC (E. coli 94393; E. coli 94393, colistin-resistant multidrug-resistant isolate): 4 µg/mL; MIC (K. pneumoniae 113250; K. pneumoniae 113250, colistin-resistant multidrug-resistant isolate): 256 µg/mL; MIC (K. pneumoniae 113254; K. pneumoniae 113254, colistin-resistant multidrug-resistant isolate): 256 µg/mL; MIC (P. aeruginosa 114228; P. aeruginosa 114228, colistin-resistant multidrug-resistant isolate): 4 µg/mL; MIC (P. aeruginosa 101243; P. aeruginosa 101243, colistin-resistant multidrug-resistant isolate): 1024 µg/mL; MIC (P. aeruginosa 91433; P. aeruginosa 91433, colistin-resistant multidrug-resistant isolate): 4 µg/mL; MIC (A. baumannii 92247; A. baumannii 92247, colistin-resistant multidrug-resistant isolate): 4 µg/mL
CC(C)C[C@@H]1NC(=O)[C@@H](Cc2ccccc2)NC(=O)[C@H](CCN)NC(=O)[C@@H](NC(=O)[C@H](CCN)NC(=O)[C@@H](NC(=O)[C@H](CCNC(=O)CC23CC4CC(CC(C4)C2)C3)NC(=O)CC23CC4CC(CC(C4)C2)C3)[C@@H](C)O)CCNC(=O)[C@H]([C@@H](C)O)NC(=O)[C@H](CCN)NC(=O)[C@H](CCN)NC1=O [Compound 4, Diadamantane Acetic Acid (Di-Adamantyl) Polymyxin] ({Acetyl(1-adamantyl)}-[Dab](Acetyl(1-adamantyl))T[Dab][Dab][Dab][dF]L[Dab][Dab]T; lactam 4-C)	4 µg/mL (≈ 2.83 µM)	8 µg/mL (≈ 5.65 µM)	16 µg/mL (≈ 11.3 µM)	128 µg/mL (≈ 90.4 µM)	64 µg/mL (≈ 45.2 µM)	16 µg/mL (≈ 11.3 µM)	32 µg/mL (≈ 22.6 µM)	32 µg/mL (≈ 22.6 µM)	16 µg/mL (≈ 11.3 µM)	4 µg/mL (≈ 2.83 µM)	4 µg/mL (≈ 2.83 µM)	4 µg/mL (≈ 2.83 µM)	64 µg/mL (≈ 45.2 µM)	64 µg/mL (≈ 45.2 µM)	16 µg/mL (≈ 11.3 µM)	64 µg/mL (≈ 45.2 µM)	MIC (E. coli 94474; 94474): 8 µg/mL (≈ 5.65 µM); MIC (E. coli 94393; 94393): 16 µg/mL (≈ 11.3 µM); MIC (K. pneumoniae 113250; 113250): >64 µg/mL; MIC (K. pneumoniae 113254; 113254): >64 µg/mL; MIC (P. aeruginosa 114228; 114228): 8 µg/mL (≈ 5.65 µM); MIC (P. aeruginosa 101243; 101243): 64 µg/mL (≈ 45.2 µM); MIC (P. aeruginosa 91433; 91433): 8 µg/mL (≈ 5.65 µM); MIC (A. baumannii 92247; 92247): 8 µg/mL (≈ 5.65 µM)
